Counter-ions that a name gives are not always drawn.

The assay deals with interaction between p53 and MDM2 proteins (recombinant GST-tagged MDM2 / p53 peptide) (Homo sapiens, UniProt Q00987). Briefly: HTRF assay of inhibition of the p53-MDM2 interaction (GST-MDM2 binding to biotinylated p53 peptide). The note with it: 90 nM biotinylated p53 peptide, 160 ng/mL GST-MDM2, 37° C. 1 h. As for the experimental part: The ability of the compounds to inhibit the interaction between p53 and MDM2 proteins was measured by an HTRF (homogeneous time-resolved fluorescence) assay in which recombinant GST-tagged MDM2 binds to a peptide that resembles the MDM2-interacting region of p53 (Lane et al.). Binding of GST-MDM2 protein and p53-peptide (biotinylated on its N-terminal end) is registered by the FRET (fluorescence resonance energy transfer) between Europium (Eu)-labeled anti-GST antibody and streptavidin-conjugated Allophycocyanin (APC).
Sequence of interaction between p53 and MDM2 proteins (recombinant GST-tagged MDM2 / p53 peptide) (Q00987 whole entry): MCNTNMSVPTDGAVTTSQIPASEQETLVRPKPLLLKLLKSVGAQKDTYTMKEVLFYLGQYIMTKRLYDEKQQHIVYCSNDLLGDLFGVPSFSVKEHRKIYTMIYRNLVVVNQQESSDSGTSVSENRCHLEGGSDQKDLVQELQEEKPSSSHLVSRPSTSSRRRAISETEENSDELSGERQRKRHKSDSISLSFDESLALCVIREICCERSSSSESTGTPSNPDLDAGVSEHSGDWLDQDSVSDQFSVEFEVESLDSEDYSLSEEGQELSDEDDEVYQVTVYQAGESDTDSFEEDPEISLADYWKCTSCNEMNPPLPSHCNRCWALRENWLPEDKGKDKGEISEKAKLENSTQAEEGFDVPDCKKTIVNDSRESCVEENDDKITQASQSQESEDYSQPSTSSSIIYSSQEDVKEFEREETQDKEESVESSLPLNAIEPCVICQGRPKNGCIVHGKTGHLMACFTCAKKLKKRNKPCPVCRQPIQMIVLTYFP
Test is performed in black flat-bottom 384-well plates (Costar) in a total volume of 40 uL containing: 90 nM biotinylate peptide, 160 ng/mL GST-MDM2, 20 nM streptavidin-APC (PerkinElmerWallac), 2 nM Eu-labeled anti-GST-antibody (PerkinElmerWallac), 0.2% bovine serum albumin (BSA), 1 mM dithiothreitol (DTT) and 20 mM Tris-borate saline (TBS) buffer as follows: Add 10 uL of GST-MDM2 (640 ng/mL working solution) in reaction buffer to each well. Add 10 uL diluted compounds (1:5 dilution in reaction buffer) to each well, mix by shaking. Add 20 uL biotinylated p53 peptide (180 nM working solution) in reaction buffer to each well and mix on shaker. Incubate at 37° C. for 1 h. Add 20 uL streptavidin-APC and Eu-anti-GST antibody mixture (6 nM Eu-anti-GST and 60 nM streptavidin-APC working solution) in TBS buffer with 0.2% BSA, shake at room temperature for 30 minutes and read using a TRF-capable plate reader at 665 and 615 nm (Victor 5, Perkin ElmerWallac). If not specified, the reagents were purchased from Sigma Chemical Co.
On the technique in general: TR-FRET usually uses a lanthanide donor and a delayed reading to cut background.
A word on the IC50: it is the concentration that gives 50% inhibition. In the case of `CCOc1nc(C(C)(C)C)ncc1C1=N[C@@H](c2ccc(Cl)cc2)[C@@H](c2ccc(Cl)cc2)N1C(=O)N1CCNC(=O)C1` (relative stereo) [Example 20, cis-4-[2-(2-tert-Butyl-4-ethoxy-pyrimidin-5-yl)-4,5-bis-(4-chloro-phenyl)-4,5-dihydro-imidazole-1-carbonyl]-piperazin-2-one hydrochloride], the IC50 was 46 nM.
With `CCOc1ccsc1C1=N[C@@H](c2ccc(Cl)cc2)[C@@H](c2ccc(Cl)cc2)N1C(=O)N1CCN(CC(=O)NC(C)(C)C)CC1` [Example 34, 2-{4-[(4S,5R)-4,5-Bis-(4-chloro-phenyl)-2-(3-ethoxy-thiophen-2-yl)-4,5-dihydro-imidazole-1-carbonyl]-piperazin-1-yl}-N-tert-butyl-acetamide] the figure was 110 nM; with `CCOc1ccsc1C1=N[C@@H](c2ccc(Cl)cc2)[C@@H](c2ccc(Cl)cc2)N1C(=O)N1CCN(CC(=O)N(CCOC)CCOC)CC1` [Example 36, 2-{4-[(4S,5R)-4,5-Bis-(4-chloro-phenyl)-2-(3-ethoxy-thiophen-2-yl)-4,5-dihydro-imidazole-1-carbonyl]-piperazin-1-yl}-N,N-bis-(2-methoxy-ethyl)-acetamide], 54 nM; with `CCOc1nc(C)ncc1C1=N[C@@H](c2ccc(Cl)cc2)[C@@H](c2ccc(Cl)cc2)N1C(=O)N1CCN(CC(=O)N(C)C)CC1` (relative stereo) [Example 17, cis-2-{4-[4,5-Bis-(4-chloro-phenyl)-2-(4-ethoxy-2-methyl-pyrimidin-5-yl)-4,5-dihydro-imidazole-1-carbonyl]-piperazin-1-yl}-N,N-dimethyl-acetamide], 677 nM.
Regarding `CCOc1nc(C(F)(F)F)ncc1C1=N[C@@H](c2ccc(Cl)cc2)[C@@H](c2ccc(Cl)cc2)N1C(=O)N1CCN(CCS(C)(=O)=O)CC1` (relative stereo) [Example 6, cis-[4,5-Bis-(4-chloro-phenyl)-2-(4-ethoxy-2-trifluoromethyl-pyrimidin-5-yl)-4,5-dihydro-imidazol-1-yl]-[4-(2-methanesulfonyl-ethyl)-piperazin-1-yl]-methanone], the IC50 came out at 2890 nM.

The values are drawn from US7705007B2, “Cis-imidazolines” (Hoffmann-La Roche Inc., priority 2006, dated 2010).
